Patent US5110976A, “Insecticidal composition comprising more than one active ingredient” (priority 1985, dated 1992)
Converted amounts (≈) assume the structure as drawn.

What was measured:
[1] = tested on: Musca domestica; assay: Filter paper disc contact test (Table 11); type: in vivo, house fly (Musca domestica); conditions: Musca domestica, 24 h
Outline: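 Stereoisomers in 1:2 oil/acetone were applied to 9 cm filter paper discs, the acetone evaporated, and discs placed in Petri dishes with 15 flies each, three replicates per dose. Mortality was scored at 24 h and corrected by Abbott's formula.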

[2] = tested on: Tribolium confusum; assay: Contact test on Tribolium confusum (Table 12); type: in vivo
Outline: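 Compound in 1:2 oil/acetone impregnated onto 9 cm filter paper discs; after acetone evaporation, 15 insects per Petri dish exposed by contact, three replicates per dose. Mortality read at 24 hours and corrected by Abbott's formula.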

[3] = tested on: Tribolium confusum; assay: Contact test, mixtures of Ia and Ib of various ratio (Table 13); type: in vivo, flour beetle (Tribolium confusum); conditions: Tribolium confusum, 24 h
Outline: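 Compounds in 1:2 oil/acetone impregnated onto 9 cm filter paper discs; after acetone evaporation, 15 beetles per Petri dish, three replicates per dose. Mortality read at 24 h and corrected by Abbott formula; Ia/Ib enantiomer-pair mixtures tested at various ratios.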

[4] = tested on: Colorado potato beetle; assay: Topical test on Colorado potato beetle (Table 14); type: in vivo, Colorado potato beetle (Leptinotersa decemlineata), imago; conditions: Leptinotarsa decemlineata, topical
Experimental: In Table 14 the activity on Colorado potato beetle is shown.
The test materials are dissolved in 2-ethoxyethanol (Cellosolve). One 0.3 μl drop of the solution is applied to the abdominal sterna of the imago. The treatment is carried out by using 2 parallels and 10 insects for each dose. […]

[5] = tested on: Acanthoscelides obtectus; assay: Comparative contact test (Table 15); type: in vivo, bean weevil (Acanthoscelides obtectus), imago
Experimental: (§1) The active ingredient is dissolved in a 1:2 mixture of oil and acetone; filter paper discs (Whatman No. 1, diameter 9 cm) are impregnated with the solutions of the corresponding stereoisomers and enantiomer-pairs, respectively. The acetone is allowed to evaporate, whereupon the insects are exposed to filter papers discs placed in Petri-dishes. Three parallels are used on each dose and 15 insects are placed into each Petri-dish. The percental mortality is determined after 24 hours. The corrected percent mortality is calculated by means of the Abbot Formula.
(§2) The comparative test of Ia, Ib and a 40:60 mixture of Ia:Ib is carried out on bean weevil (Acanthoscelides obtectus), flour-beetle, (Tribolium confusum), house fly (Musca domestica) and sheep maggot fly (Lucillia sericata). The test method described is Example 41.

[6] = tested on: tribolium confusum; assay: Comparative contact test (Table 15); type: in vivo, flour-beetle (Tribolium confusum), imago; conditions: 24 h
Experimental: as §1, §2

[7] = tested on: Musca domestica; assay: Comparative contact test (Table 15); type: in vivo, house fly (Musca domestica), imago; conditions: 24 h
Experimental: as §1, §2

[8] = tested on: Lucillia sericata; assay: Comparative contact test (Table 15); type: in vivo, sheep maggot fly (Lucillia sericata), imago; set-up: key: % mortality after 24 h, Abbott-corrected; conditions: 1440 min
Experimental: as §1, §2

[9] = tested on: T. confusum; assay: Activity as function of time, toxic symptoms (Table 16); type: in vivo, flour beetle (T. confusum), imagos
Outline: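 T. confusum imagos exposed in Petri dishes to filter-paper discs impregnated with isomer solutions in 1:2 oil/acetone, acetone evaporated; 3 replicates of 15 insects per dose. Insects lying on their backs counted at successive time points, expressed as percent.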

[10] = tested on: Hyphantria cunea; assay: Topical test on fall webworm (Table 18); type: in vivo, fall wetworm (Hyphantria cunea), L7-L8 larvae; conditions: Hyphantria cunea, topical, 24 h
Experimental: The active ingredients are dissolved in 2-ethoxy-ethanol and the solutions are applied in the form of 0.2 μl droplets onto the back of fall wetworm (Hyphantria cunea) of L7 -L8 larvae stage. The treated worms are placed on strawberry leaves in Petri-dishes. The test is carried out by using […], 2 parallels and 10 insects for each dose. The killed worms are counted after 24 hours and the percental mortality rate is calculated.

[11] = tested on: Tetranychus urticae; assay: Potter Tower spray on mite-infested leaves (Table 19); type: in vivo, mites (Tetranychus urticae); conditions: Tetranychus urticae, 24 h, mortality after 24 hours; read-out: approx. LD50
Experimental: Leaves already infested with mites (Tetranychus urticae) were sprayed under Potter Tower. Mortality after 24 hours on the treated leaves was compared with the control.

[12] = Acute toxicity on rats and selectivity index; conditions: rat, in vivo
Text: The said selectivity index of the enantiomer-pair Ia amounts to 50/0.45=111.
In addition to the synergistic effect the composition of the present invention has a number of further advantages too and for this reason it is an outstanding product. It is very important that the compositions of the present invention are less toxical towards mammals than the hitherto known compositions of similar efficiency. […] The said selectivity index of Ia amounts to 50/0.45=111.

SMILES: CC1(C)[C@H](C=C(Cl)Cl)[C@H]1C(=O)O[C@H](C#N)c1cccc(Oc2ccccc2)c1 (relative stereo) [Ib]
- mortality at 40 µg/disc ([1]; 0.04 mg/disc): 32%
- mortality at 110 µg/disc ([1]; 0.11 mg/disc): 62%
- mortality at 330 µg/disc ([1]; 0.33 mg/disc): 95%
- mortality at 1000 µg/disc ([1]; 1.00 mg/disc): 100%
- mortality at 3000 µg/disc ([1]; 3.00 mg/disc): 100%
- mortality at 110 µg/disc ([2]; Tribolium confusum, 24 h, 0.11 mg/disc): 64%
- mortality at 330 µg/disc ([2]; Tribolium confusum, 24 h, 0.33 mg/disc): 89%
- mortality at 1000 µg/disc ([2]; Tribolium confusum, 24 h, 1.00 mg/disc): 100%
- mortality at 3000 µg/disc ([2]; Tribolium confusum, 24 h, 3.00 mg/disc): 100%
- synergism between the members of the enantiomer-pair ([2]; in vivo): synergism observed
- mortality at 60 µg/disc ([3]; 0.06 mg/disc): 46%
- mortality at 250 µg/disc ([3]; 0.25 mg/disc): 100%
- mortality at 20 µg/disc ([3]; 0.02 mg/disc): 8%
- mortality at 1000 µg/disc ([3]; 1.00 mg/disc): 100%
- mortality at 0.05 µg/beetle ([4]; read-out: 24 hours' mortality %, 0.05 μg/beetle): 0%
- mortality at 0.1 µg/beetle ([4]; read-out: 24 hours' mortality %, 0.10 μg/beetle): 25%
- mortality at 0.2 µg/beetle ([4]; read-out: 24 hours' mortality %, 0.20 μg/beetle): 75%
- mortality at 0.4 µg/beetle ([4]; read-out: 24 hours' mortality %, 0.40 μg/beetle): 85%
- mortality at 20 µg/disc ([5]; Acanthoscelides obtectus, 24 h, 0.02 mg/disc): 32%
- mortality at 70 µg/disc ([5]; Acanthoscelides obtectus, 24 h, 0.07 mg/disc): 55%
- mortality at 220 µg/disc ([5]; Acanthoscelides obtectus, 24 h, 0.22 mg/disc): 87%
- mortality at 670 µg/disc ([5]; Acanthoscelides obtectus, 24 h, 0.67 mg/disc): 100%
- mortality at 2000 µg/disc ([5]; Acanthoscelides obtectus, 24 h, 2.0 mg/disc): 100%
- mortality at 6000 µg/disc ([5]; Acanthoscelides obtectus, 24 h, 6.0 mg/disc): 100%
- comparative activity ([5]; Example 47, further insect species, Ib versus Ia): more active than Ia
- mortality at 20 µg/disc ([6]; 0.02 mg/disc): 14%
- mortality at 70 µg/disc ([6]; 0.07 mg/disc): 73%
- mortality at 220 µg/disc ([6]; 0.22 mg/disc): 100%
- mortality at 670 µg/disc ([6]; 0.67 mg/disc): 100%
- mortality at 2000 µg/disc ([6]; 2.0 mg/disc): 100%
- mortality at 6000 µg/disc ([6]; 6.0 mg/disc): 100%
- mortality at 20 µg/disc ([7]; 0.02 mg/disc): 0%
- mortality at 70 µg/disc ([7]; 0.07 mg/disc): 18%
- mortality at 220 µg/disc ([7]; 0.22 mg/disc): 67%
- mortality at 670 µg/disc ([7]; 0.67 mg/disc): 100%
- mortality at 2000 µg/disc ([7]; 2.0 mg/disc): 100%
- mortality at 6000 µg/disc ([7]; 6.0 mg/disc): 100%
- mortality ([8]; 0.02 mg/disc): 22
- mortality ([8]; 0.07 mg/disc): 55
- mortality ([8]; 0.22 mg/disc): 70
- mortality ([8]; 0.67 mg/disc): 75
- mortality ([8]; 2.0 mg/disc): 100
- mortality ([8]; 6.0 mg/disc): 100
- % of insects showing toxic symptoms ([9]; 30 minutes): 0%
- % of insects showing toxic symptoms ([9]; 30 minutes, 0.33 mg/disc): 0%
- % of insects showing toxic symptoms ([9]; 30 minutes, 1.00 mg/disc): 47%
- % of insects showing toxic symptoms ([9]; 30 minutes, 3.00 mg/disc): 61%
- % of insects showing toxic symptoms ([9]; 60 minutes): 0%
- % of insects showing toxic symptoms ([9]; 60 minutes, 0.33 mg/disc): 21%
- % of insects showing toxic symptoms ([9]; 60 minutes, 1.00 mg/disc): 82%
- % of insects showing toxic symptoms ([9]; 60 minutes, 3.00 mg/disc): 100%
- % of insects showing toxic symptoms ([9]; 120 minutes): 28%
- % of insects showing toxic symptoms ([9]; 120 minutes, 0.33 mg/disc): 100%
- % of insects showing toxic symptoms ([9]; 120 minutes, 1.00 mg/disc): 100%
- % of insects showing toxic symptoms ([9]; 120 minutes, 3.00 mg/disc): 100%
- % of insects showing toxic symptoms ([9]; 180 minutes): 56%
- % of insects showing toxic symptoms ([9]; 180 minutes, 0.33 mg/disc): 100%
- % of insects showing toxic symptoms ([9]; 180 minutes, 1.00 mg/disc): 100%
- % of insects showing toxic symptoms ([9]; 180 minutes, 3.00 mg/disc): 100%
- mortality at 0.023 µg/disc ([10]; 0.023 (μg/disc)): 10%
- mortality at 0.047 µg/disc ([10]; 0.047 (μg/disc)): 15%
- mortality at 0.094 µg/disc ([10]; 0.094 (μg/disc)): 30%
- mortality at 0.188 µg/disc ([10]; 0.188 (μg/disc)): 70%
- mortality at 0.375 µg/disc ([10]; 0.375 (μg/disc)): 80%
- LC50 [11]: ~0.34 µg/mL (≈ 0.817 µM)
- LD50 ([12]; po, rats, p.o., read-out: approximate LD50 toxicity): ~5000 mg/kg
- selectivity ratio ([12]; quotient of approximate LD50 values on rats and house fly): 7800
